Measured values from ChEMBL document CHEMBL1201862, “PubChem BioAssay data set” (2004).
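Values below derive from 48-hour exposures of cells grown in 96-well plates, with endpoints linearly interpolated between the two concentrations bracketing the appropriate inhibition level. GI50 = concentration required for 50% inhibition of growth.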 The source made the active and inactive calls. Rule as the data show it: active = GI50 up to about 1.1 µM and inactive = higher.

Experiments:
Assay in all cases: NCI tumour cell line growth inhibition, 48 h
KM12 = test system: KM12
OVCAR-5 = test system: OVCAR-5
HL-60 = test system: HL-60
HCC 2998 = test system: HCC 2998
MOLT-4 = test system: MOLT-4
SNB-19 = test system: SNB-19
NCI-H23 = test system: NCI-H23
PC-3 = test system: PC-3
HCT-116 = test system: HCT-116
OVCAR-4 = test system: OVCAR-4
COLO 205 = test system: COLO 205
LOX IMVI = test system: LOX IMVI
MDA-N = test system: MDA-N
RXF 393 = test system: RXF 393
HOP-92 = test system: HOP-92
UO-31 = test system: UO-31
MCF7 = test system: MCF7

Compound | GI50 (KM12) | GI50 (OVCAR-5) | GI50 (HL-60) | GI50 (HCC 2998) | GI50 (MOLT-4) | GI50 (SNB-19) | GI50 (NCI-H23) | GI50 (PC-3) | GI50 (HCT-116) | GI50 (OVCAR-4) | GI50 (COLO 205) | GI50 (LOX IMVI) | GI50 (MDA-N) | GI50 (RXF 393) | GI50 (HOP-92) | GI50 (UO-31) | GI50 (MCF7)
N#CC1=C(N2CCCC2)NC(=O)CC1=O | > 100 µM (inactive) | > 100 µM (inactive) | > 100 µM (inactive) | > 100 µM (inactive) | > 100 µM (inactive) | > 100 µM (inactive) | > 100 µM (inactive) | > 100 µM (inactive) | > 100 µM (inactive) | > 100 µM (inactive) | > 100 µM (inactive) | > 100 µM (inactive) | > 100 µM (inactive) | > 100 µM (inactive) | > 100 µM (inactive) | > 100 µM (inactive) | –
N#CC(c1ccc(O)cc1)N1CCN(C(C#N)c2ccc(O)cc2)CC1 (stereo not given) | > 100 µM (inactive) | > 100 µM (inactive) | > 100 µM (inactive) | > 100 µM (inactive) | > 100 µM (inactive) | 24.9 µM (inactive) | > 100 µM (inactive) | > 100 µM (inactive) | > 100 µM (inactive) | > 100 µM (inactive) | > 100 µM (inactive) | > 100 µM (inactive) | – | 33.9 µM (inactive) | 23.3 µM (inactive) | > 100 µM (inactive) | > 100 µM (inactive)
CCN(CC)CC[n+]1ccc2c(C)c3[nH]c4ccccc4c3c(C)c2c1 | 0.338 µM (active) | 1.61 µM (inactive) | 0.168 µM (active) | 0.468 µM (active) | 0.106 µM (active) | 0.144 µM (active) | 0.546 µM (active) | 0.553 µM (active) | – | – | – | 0.689 µM (active) | 0.675 µM (active) | 1.55 µM (inactive) | – | – | 0.522 µM (active)
CC(C)[C@H]1NC(=O)[C@H]2N=C(S[C@H]2C)[C@@H]2CCCN2C(=O)[C@H](Cc2ccccc2)NC(=O)[C@@H]2CSC(=N2)[C@@H](Cc2ccccc2)NC(=O)[C@@H]2CSC1=N2 | 12.3 µM (inactive) | > 50 µM (inactive) | 0.0912 µM (active) | 10.7 µM (inactive) | 11.6 µM (inactive) | 24.2 µM (inactive) | 40.3 µM (inactive) | 14.6 µM (inactive) | 30.9 µM (inactive) | 10.9 µM (inactive) | 16.1 µM (inactive) | 29.7 µM (inactive) | 30.2 µM (inactive) | 15.9 µM (inactive) | – | 21.8 µM (inactive) | 19.1 µM (inactive)
